Results as given in patent US6355799B1, “Substituted benzene compounds, process for their preparation, and herbicidal and defoliant compositions containing them” (ISK Americas Incorporated, priority 1997, dated 2002).

Key:
Assay type in all cases: in vivo
[1] = tested on: upland rice (Oryza sp., var. Tebonnet, RICE); assay: Pre-emerge test, crop safety; conditions: pre-emerge, rated 14 days after application, 0 = no damage, 100 = complete death
Method in brief: (§1)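 Compounds in acetone were track-sprayed at 15-1000 g ai/ha (187 l/ha) on sandy loam pots: pre-emerge one day after seeding, post-emerge at 2-3 leaf stage with 0.25% v/v non-ionic surfactant. Phytotoxicity was rated 14 days later on a 0 (no damage) to 100 (complete death) scale.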

[2] = tested on: field corn (Zea mays L., var. Dekalb 535, CORN); assay: Pre-emerge test, crop safety; conditions: pre-emerge, rated 14 days after application, 0 = no damage, 100 = complete death
Method in brief: as §1

[3] = tested on: barnyardgrass (Echinochloa crus-galli, ECHCG); assay: Post-emerge test, greenhouse herbicide activity screening; conditions: phytotoxicity rating 0-100 (0 no damage, 100 complete death), 14 days after application
Method in brief: (§2)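 Visual ratings on a 0-100 scale (0 no damage, 100 all plants dead) were taken at 14 days after treatment. Rates of 15-1000 g ai/ha in acetone, 187 l/ha, were sprayed onto soil one day after planting (pre-emerge) or onto 2-3 leaf plants with 0.25% v/v surfactant (post-emerge).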

[4] = tested on: sicklepod (Cassia obtusifolia, CASOB); assay: as above; conditions: phytotoxicity rating 0-100 (0 no damage, 100 complete death), 14 days after application
Method in brief: as §2

[5] = tested on: velvetleaf (Abutilon theophrasti, ABUTH); assay: as above; conditions: phytotoxicity rating 0-100 (0 no damage, 100 complete death), 14 days after application
Method in brief: as §2

[6] = tested on: large crabgrass (Digitaria sanguinalis, DIGSA); assay: as above; conditions: phytotoxicity rating 0-100 (0 no damage, 100 complete death), 14 days after application
Method in brief: as §2

[7] = tested on: ivyleaf morningglory (Ipomoea hederacea, IPOHE); assay: as above; conditions: phytotoxicity rating 0-100 (0 no damage, 100 complete death), 14 days after application
Method in brief: as §2

[8] = tested on: lambsquarters (Chenopodium album, CHEAL); assay: as above; conditions: phytotoxicity rating 0-100 (0 no damage, 100 complete death), 14 days after application
Method in brief: as §2

[9] = tested on: common ragweed (Ambrosia artemisizfolia L., AMBEL); assay: as above; conditions: phytotoxicity rating 0-100 (0 no damage, 100 complete death), 14 days after application
Method in brief: as §2

[10] = tested on: redroot pigweed (Amaranthus retroflexus, AMARE); assay: as above; conditions: phytotoxicity rating 0-100 (0 no damage, 100 complete death), 14 days after application
Method in brief: as §2

[11] = tested on: green foxtail (Setaria viridis, SETVI); assay: as above; conditions: phytotoxicity rating 0-100 (0 no damage, 100 complete death), 14 days after application
Method in brief: as §2

[12] = tested on: redroot pigweed (Amaranthus retroflexus, AMARE); assay: Pre-emerge test, greenhouse herbicide activity screening; conditions: pre-emerge, rated 14 days after application, 0 = no damage, 100 = complete death
Method in brief: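 Sandy loam pots; pre-emerge: sown 1 d pre-spray, surface-watered after, then bottom-watered. Post-emerge: sown 8–21 d before, 2–3 leaf stage, + 0.25% v/v NIS, bottom-watered. Acetone, 187 l/ha track spray, 15–1000 g ai/ha. 0–100 injury score, day 14.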

[13] = tested on: upland rice (Oryza sp., var. Tebonnet, RICE); assay: Post-emerge test, crop safety; conditions: phytotoxicity rating 0-100 (0 no damage, 100 complete death), 14 days after application
Method in brief: (§3)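 Rating: 0–100 visual injury, 14 DAA. Application: acetone, 187 l/ha, 15–1000 g ai/ha, flat-fan track sprayer with nozzle 40–45 cm above soil or canopy. Post-emerge runs used 0.25% v/v surfactant on 2–3 leaf plants.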

[14] = tested on: field corn (Zea mays L., var. Dekalb 535, CORN); assay: Post-emerge test, crop safety; conditions: phytotoxicity rating 0-100 (0 no damage, 100 complete death), 14 days after application
Method in brief: as §3

[15] = tested on: barnyardgrass (Echinochloa crus-galli, ECHCG); assay: Pre-emerge test, greenhouse herbicide activity screening; conditions: pre-emerge, rated 14 days after application, 0 = no damage, 100 = complete death
Method in brief: (§4)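 Compounds in acetone were track-sprayed at 15–1000 g ai/ha: pre-emergence onto soil sown the previous day, then top-watered to incorporate and later bottom-watered; post-emergence onto 2–3 leaf plants with 0.25% v/v surfactant, bottom-watered only. Ratings on a 0–100 phytotoxicity scale were taken at day 14.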

[16] = tested on: sicklepod (Cassia obtusifolia, CASOB); assay: as above; conditions: pre-emerge, rated 14 days after application, 0 = no damage, 100 = complete death
Method in brief: as §4

[17] = tested on: velvetleaf (Abutilon theophrasti, ABUTH); assay: as above; conditions: pre-emerge, rated 14 days after application, 0 = no damage, 100 = complete death
Method in brief: as §4

[18] = tested on: large crabgrass (Digitaria sanguinalis, DIGSA); assay: as above; conditions: pre-emerge, rated 14 days after application, 0 = no damage, 100 = complete death
Method in brief: as §4

[19] = tested on: ivyleaf morningglory (Ipomoea hederacea, IPOHE); assay: as above; conditions: pre-emerge, rated 14 days after application, 0 = no damage, 100 = complete death
Method in brief: as §4

[20] = tested on: johnsongrass (Sorghum halepense, SORHA); assay: as above; conditions: pre-emerge, rated 14 days after application, 0 = no damage, 100 = complete death
Method in brief: as §4

[21] = tested on: lambsquarters (Chenopodium album, CHEAL); assay: as above; conditions: pre-emerge, rated 14 days after application, 0 = no damage, 100 = complete death
Method in brief: as §4

[22] = tested on: common ragweed (Ambrosia artemisizfolia L., AMBEL); assay: as above; conditions: pre-emerge, rated 14 days after application, 0 = no damage, 100 = complete death
Method in brief: as §4

[23] = tested on: green foxtail (Setaria viridis, SETVI); assay: as above; conditions: pre-emerge, rated 14 days after application, 0 = no damage, 100 = complete death
Method in brief: as §4

Cn1c(C(F)(F)F)cc(=O)n(-c2c(N)cc(OC(F)F)cc2F)c1=O [Compound 1-51]
Pre-emerge crop damage RICE (phytotoxicity rating, scale 0-100) ([1]; 63 g ai/ha): 10
Pre-emerge crop damage RICE (phytotoxicity rating, scale 0-100) ([1]; 250 g ai/ha): 70
Pre-emerge crop damage CORN (phytotoxicity rating, scale 0-100) ([2]; 63 g ai/ha): 0
Pre-emerge crop damage CORN (phytotoxicity rating, scale 0-100) ([2]; 250 g ai/ha): 70
Post-emerge Herbicidal Activity ECHCG ([3]; 63 g ai/ha): 0
Post-emerge Herbicidal Activity ECHCG ([3]; 250 g ai/ha): 10
Post-emerge Herbicidal Activity CASOB ([4]; 63 g ai/ha): 40
Post-emerge Herbicidal Activity CASOB ([4]; 250 g ai/ha): 60
Post-emerge Herbicidal Activity ABUTH ([5]; 63 g ai/ha): 60
Post-emerge Herbicidal Activity ABUTH ([5]; 250 g ai/ha): 80
Post-emerge Herbicidal Activity DIGSA ([6]; 63 g ai/ha): 10
Post-emerge Herbicidal Activity DIGSA ([6]; 250 g ai/ha): 20
Post-emerge Herbicidal Activity IPOHE ([7]; 63 g ai/ha): 40
Post-emerge Herbicidal Activity IPOHE ([7]; 250 g ai/ha): 95
Post-emerge Herbicidal Activity CHEAL ([8]; 63 g ai/ha): 30
Post-emerge Herbicidal Activity CHEAL ([8]; 250 g ai/ha): 95
Post-emerge Herbicidal Activity AMBEL ([9]; 63 g ai/ha): 70
Post-emerge Herbicidal Activity AMBEL ([9]; 250 g ai/ha): 90
Post-emerge Herbicidal Activity AMARE ([10]; 63 g ai/ha): 70
Post-emerge Herbicidal Activity AMARE ([10]; 250 g ai/ha): 70
Post-emerge Herbicidal Activity SETVI ([11]; 63 g ai/ha): 0
Post-emerge Herbicidal Activity SETVI ([11]; 250 g ai/ha): 30
Pre-emerge Herbicidal Activity AMARE (phytotoxicity rating, scale 0-100) ([12]; 63 g ai/ha): 90
Pre-emerge Herbicidal Activity AMARE (phytotoxicity rating, scale 0-100) ([12]; 250 g ai/ha): 100
Post-emerge Herbicidal Activity RICE (crop damage) ([13]; 63 g ai/ha): 10
Post-emerge Herbicidal Activity RICE (crop damage) ([13]; 250 g ai/ha): 30
Post-emerge Herbicidal Activity CORN (crop damage) ([14]; 63 g ai/ha): 10
Post-emerge Herbicidal Activity CORN (crop damage) ([14]; 250 g ai/ha): 20
Pre-emerge Herbicidal Activity ECHCG (phytotoxicity rating, scale 0-100) ([15]; 63 g ai/ha): 0
Pre-emerge Herbicidal Activity ECHCG (phytotoxicity rating, scale 0-100) ([15]; 250 g ai/ha): 50
Pre-emerge Herbicidal Activity CASOB (phytotoxicity rating, scale 0-100) ([16]; 63 g ai/ha): 0
Pre-emerge Herbicidal Activity CASOB (phytotoxicity rating, scale 0-100) ([16]; 250 g ai/ha): 30
Pre-emerge Herbicidal Activity ABUTH (phytotoxicity rating, scale 0-100) ([17]; 63 g ai/ha): 90
Pre-emerge Herbicidal Activity ABUTH (phytotoxicity rating, scale 0-100) ([17]; 250 g ai/ha): 100
Pre-emerge Herbicidal Activity DIGSA (phytotoxicity rating, scale 0-100) ([18]; 63 g ai/ha): 20
Pre-emerge Herbicidal Activity DIGSA (phytotoxicity rating, scale 0-100) ([18]; 250 g ai/ha): 90
Pre-emerge Herbicidal Activity IPOHE (phytotoxicity rating, scale 0-100) ([19]; 63 g ai/ha): 50
Pre-emerge Herbicidal Activity IPOHE (phytotoxicity rating, scale 0-100) ([19]; 250 g ai/ha): 80
Pre-emerge Herbicidal Activity SORHA (phytotoxicity rating, scale 0-100) ([20]; 63 g ai/ha): 10
Pre-emerge Herbicidal Activity SORHA (phytotoxicity rating, scale 0-100) ([20]; 250 g ai/ha): 60
Pre-emerge Herbicidal Activity CHEAL (phytotoxicity rating, scale 0-100) ([21]; 63 g ai/ha): 90
Pre-emerge Herbicidal Activity CHEAL (phytotoxicity rating, scale 0-100) ([21]; 250 g ai/ha): 100
Pre-emerge Herbicidal Activity AMBEL (phytotoxicity rating, scale 0-100) ([22]; 63 g ai/ha): 30
Pre-emerge Herbicidal Activity AMBEL (phytotoxicity rating, scale 0-100) ([22]; 250 g ai/ha): 80
Pre-emerge Herbicidal Activity SETVI (phytotoxicity rating, scale 0-100) ([23]; 63 g ai/ha): 30
Pre-emerge Herbicidal Activity SETVI (phytotoxicity rating, scale 0-100) ([23]; 250 g ai/ha): 90
